How the values were obtained:
[1] = system: Detoxification protein genes; assay: DNA chip mRNA expression in yeast, detoxification protein genes (Table 8); type: cell-based, Saccharomyces cerevisiae S288C
Method in brief: (§1)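 Untreated cultures served as reference for log-phase S288C yeast given a growth-inhibiting, non-lethal toxicant dose for 2 h at 25° C. in YPD. Gene expression was measured on a whole-genome DNA chip from Cy3/Cy5-labeled cDNA.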

DNA repair protein genes = assay: DNA chip mRNA expression in yeast, DNA repair protein genes (Table 3); type: cell-based, Saccharomyces cerevisiae S288C; details: incubated two hours, concentrations as in the 1st table
Method in brief: as §1

Cl[C@H]1[C@H](Cl)[C@@H](Cl)[C@@H](Cl)[C@H](Cl)[C@H]1Cl [(7), γ-hexachlorocyclohexane]
The level of expressed mRNA in the presence of chemical substance/The level of expressed mRNA in the absence of chemical substance ([1]; yeast gene YOR251C): 1.0
The level of expressed mRNA in the presence of chemical substance/The level of expressed mRNA in the absence of chemical substance ([1]; yeast gene YOR273C): 0.4
The level of expressed mRNA in the presence of chemical substance/The level of expressed mRNA in the absence of chemical substance ([1]; yeast gene YPL163C): 0.4
The level of expressed mRNA in the presence of chemical substance/The level of expressed mRNA in the absence of chemical substance ([1]; yeast gene YPR200C): 1.3
The level of expressed mRNA in the presence of chemical substance/The level of expressed mRNA in the absence of chemical substance (DNA repair protein genes; yeast gene YAL015C): 1.2
The level of expressed mRNA in the presence of chemical substance/The level of expressed mRNA in the absence of chemical substance (DNA repair protein genes; yeast gene YAR007C): 0.8
The level of expressed mRNA in the presence of chemical substance/The level of expressed mRNA in the absence of chemical substance (DNA repair protein genes; yeast gene YBL019W): 1.2
The level of expressed mRNA in the presence of chemical substance/The level of expressed mRNA in the absence of chemical substance (DNA repair protein genes; yeast gene YBR073W): 0.6
The level of expressed mRNA in the presence of chemical substance/The level of expressed mRNA in the absence of chemical substance (DNA repair protein genes; yeast gene YBR272C): 1.9
The level of expressed mRNA in the presence of chemical substance/The level of expressed mRNA in the absence of chemical substance (DNA repair protein genes; yeast gene YCR014C): 1.1
The level of expressed mRNA in the presence of chemical substance/The level of expressed mRNA in the absence of chemical substance (DNA repair protein genes; yeast gene YDL017W): 1.1
The level of expressed mRNA in the presence of chemical substance/The level of expressed mRNA in the absence of chemical substance (DNA repair protein genes; yeast gene YDL059C): 1.1
The level of expressed mRNA in the presence of chemical substance/The level of expressed mRNA in the absence of chemical substance (DNA repair protein genes; yeast gene YDL200C): 1.7
The level of expressed mRNA in the presence of chemical substance/The level of expressed mRNA in the absence of chemical substance (DNA repair protein genes; yeast gene YDR054C): 1.1
The level of expressed mRNA in the presence of chemical substance/The level of expressed mRNA in the absence of chemical substance (DNA repair protein genes; yeast gene YDR369C): 0.4
The level of expressed mRNA in the presence of chemical substance/The level of expressed mRNA in the absence of chemical substance (DNA repair protein genes; yeast gene YEL019C): 1.2
The level of expressed mRNA in the presence of chemical substance/The level of expressed mRNA in the absence of chemical substance (DNA repair protein genes; yeast gene YEL037C): 0.8
The level of expressed mRNA in the presence of chemical substance/The level of expressed mRNA in the absence of chemical substance (DNA repair protein genes; yeast gene YER162C): 0.5
The level of expressed mRNA in the presence of chemical substance/The level of expressed mRNA in the absence of chemical substance (DNA repair protein genes; yeast gene YFL014W): 5.5
The level of expressed mRNA in the presence of chemical substance/The level of expressed mRNA in the absence of chemical substance (DNA repair protein genes; yeast gene YGL058W): 0.0
The level of expressed mRNA in the presence of chemical substance/The level of expressed mRNA in the absence of chemical substance (DNA repair protein genes; yeast gene YGL091C): 1.3
The level of expressed mRNA in the presence of chemical substance/The level of expressed mRNA in the absence of chemical substance (DNA repair protein genes; yeast gene YGL127C): 1.0
The level of expressed mRNA in the presence of chemical substance/The level of expressed mRNA in the absence of chemical substance (DNA repair protein genes; yeast gene YGL163C): 1.0
The level of expressed mRNA in the presence of chemical substance/The level of expressed mRNA in the absence of chemical substance (DNA repair protein genes; yeast gene YGL249W): 1.2
The level of expressed mRNA in the presence of chemical substance/The level of expressed mRNA in the absence of chemical substance (DNA repair protein genes; yeast gene YGR180C): 0.5
The level of expressed mRNA in the presence of chemical substance/The level of expressed mRNA in the absence of chemical substance (DNA repair protein genes; yeast gene YGR231C): 2.1
The level of expressed mRNA in the presence of chemical substance/The level of expressed mRNA in the absence of chemical substance (DNA repair protein genes; yeast gene YGR258C): 1.5
The level of expressed mRNA in the presence of chemical substance/The level of expressed mRNA in the absence of chemical substance (DNA repair protein genes; yeast gene YHR164C): 0.8
The level of expressed mRNA in the presence of chemical substance/The level of expressed mRNA in the absence of chemical substance (DNA repair protein genes; yeast gene YIL036W): 1.4
The level of expressed mRNA in the presence of chemical substance/The level of expressed mRNA in the absence of chemical substance (DNA repair protein genes; yeast gene YIL072W): 1.7
The level of expressed mRNA in the presence of chemical substance/The level of expressed mRNA in the absence of chemical substance (DNA repair protein genes; yeast gene YIL143C): 0.8
The level of expressed mRNA in the presence of chemical substance/The level of expressed mRNA in the absence of chemical substance (DNA repair protein genes; yeast gene YIL153W): 1.6
The level of expressed mRNA in the presence of chemical substance/The level of expressed mRNA in the absence of chemical substance (DNA repair protein genes; yeast gene YIR002C): 1.3
The level of expressed mRNA in the presence of chemical substance/The level of expressed mRNA in the absence of chemical substance (DNA repair protein genes; yeast gene YJL026W): 0.5
The level of expressed mRNA in the presence of chemical substance/The level of expressed mRNA in the absence of chemical substance (DNA repair protein genes; yeast gene YJR046W): 0.9
The level of expressed mRNA in the presence of chemical substance/The level of expressed mRNA in the absence of chemical substance (DNA repair protein genes; yeast gene YJR052W): 1.2
The level of expressed mRNA in the presence of chemical substance/The level of expressed mRNA in the absence of chemical substance (DNA repair protein genes; yeast gene YKL145W): 1.6
The level of expressed mRNA in the presence of chemical substance/The level of expressed mRNA in the absence of chemical substance (DNA repair protein genes; yeast gene YLR103C): 1.3
The level of expressed mRNA in the presence of chemical substance/The level of expressed mRNA in the absence of chemical substance (DNA repair protein genes; yeast gene YLR233C): 0.8
The level of expressed mRNA in the presence of chemical substance/The level of expressed mRNA in the absence of chemical substance (DNA repair protein genes; yeast gene YLR288C): 1.3
The level of expressed mRNA in the presence of chemical substance/The level of expressed mRNA in the absence of chemical substance (DNA repair protein genes; yeast gene YML032C): 0.8
The level of expressed mRNA in the presence of chemical substance/The level of expressed mRNA in the absence of chemical substance (DNA repair protein genes; yeast gene YML058W): 0.6
The level of expressed mRNA in the presence of chemical substance/The level of expressed mRNA in the absence of chemical substance (DNA repair protein genes; yeast gene YMR035W): 2.3
The level of expressed mRNA in the presence of chemical substance/The level of expressed mRNA in the absence of chemical substance (DNA repair protein genes; yeast gene YMR072W): 1.4
The level of expressed mRNA in the presence of chemical substance/The level of expressed mRNA in the absence of chemical substance (DNA repair protein genes; yeast gene YMR096W): 1.9
The level of expressed mRNA in the presence of chemical substance/The level of expressed mRNA in the absence of chemical substance (DNA repair protein genes; yeast gene YMR284W): 0.8
The level of expressed mRNA in the presence of chemical substance/The level of expressed mRNA in the absence of chemical substance (DNA repair protein genes; yeast gene YNL213C): 1.4
The level of expressed mRNA in the presence of chemical substance/The level of expressed mRNA in the absence of chemical substance (DNA repair protein genes; yeast gene YNL250W): 1.2
The level of expressed mRNA in the presence of chemical substance/The level of expressed mRNA in the absence of chemical substance (DNA repair protein genes; yeast gene YNL261W): 1.0
The level of expressed mRNA in the presence of chemical substance/The level of expressed mRNA in the absence of chemical substance (DNA repair protein genes; yeast gene YNL312W): 0.5
The level of expressed mRNA in the presence of chemical substance/The level of expressed mRNA in the absence of chemical substance (DNA repair protein genes; yeast gene YOL043C): 1.0
The level of expressed mRNA in the presence of chemical substance/The level of expressed mRNA in the absence of chemical substance (DNA repair protein genes; yeast gene YOR005C): 1.4
The level of expressed mRNA in the presence of chemical substance/The level of expressed mRNA in the absence of chemical substance (DNA repair protein genes; yeast gene YOR386W): 1.8
The level of expressed mRNA in the presence of chemical substance/The level of expressed mRNA in the absence of chemical substance (DNA repair protein genes; yeast gene YPL022W): 0.8
The level of expressed mRNA in the presence of chemical substance/The level of expressed mRNA in the absence of chemical substance (DNA repair protein genes; yeast gene YPL164C): 0.9
The level of expressed mRNA in the presence of chemical substance/The level of expressed mRNA in the absence of chemical substance (DNA repair protein genes; yeast gene YPL194W): 1.5
The level of expressed mRNA in the presence of chemical substance/The level of expressed mRNA in the absence of chemical substance (DNA repair protein genes; yeast gene YPR025C): 1.4

Source: US8192962B2, “Processes for detecting toxic substances” (Daikin Industries, Ltd., priority 2001, dated 2012)
